Reference: patent US10077241B2 (Janssen Pharmaceutica NV, priority 2014, dated 2018)
Where a name gives a salt, the structure may show the parent alone.

How the values were obtained:
TGR5 (STC1 cell line) = target: T1, TGR5 (STC1 cell line) (Mus musculus, UniProt Q80SS6); assay: STC1 cAMP Agonist EC50 Determination
T1 sequence (Q80SS6 1-329): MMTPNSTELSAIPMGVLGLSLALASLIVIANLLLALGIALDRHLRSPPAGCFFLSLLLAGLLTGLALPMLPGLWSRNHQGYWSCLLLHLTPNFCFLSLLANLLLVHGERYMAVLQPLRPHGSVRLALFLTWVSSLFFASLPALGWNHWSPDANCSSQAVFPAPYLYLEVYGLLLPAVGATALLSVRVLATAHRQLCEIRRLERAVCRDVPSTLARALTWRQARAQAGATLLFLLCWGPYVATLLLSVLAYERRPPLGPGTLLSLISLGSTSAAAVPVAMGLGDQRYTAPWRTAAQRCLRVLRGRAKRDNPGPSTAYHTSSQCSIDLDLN
Protocol: Cell stocks were maintained and grown in a sub-confluent state using standard cell culture procedures. The day before the experiment, the cells were harvested with non-enzymatic cell dissociation buffer and resuspended in complete growth media at 4E5 c/ml. […] The seeded plates were incubated overnight at 37° C.
On the day of the experiment, Assay Buffer containing: HBSS with Ca^2+and Mg^2+; 5 μM HEPES; 0.1% BSA; and, 0.5 μM IBMX was prepared. The growth medium was washed from the cell plates and replaced with 20 μL of Assay Buffer. […] The reaction was stopped by the addition of 20 μL 0.1% Formic Acid to all wells. Sixty minutes later 30 μL 3 M deuterated AMP was added to all wells (as a control for volume addition to the mass spec). Plates were mixed on a plate shaker for 1 min and centrifugated (5 min 3000 RPMs no brakes).
Plates were run on a 4000 QTrap triple-quadrapole Mass spectrometer in positive ion mode coupled with a Biocius RapidFire 300is. […] Two ions (cAMP and deuterated AMP were measured using Multiple Reaction Monitoring (MRM) in positive ion mode and the area under the curve (AUC) was determined for each of the ions.
The data from the Mass Spec/Rapid Plate AUC for cAMP and deuterated AMP were imported to an Excel worksheet. A Normalized signal (NS) was generated for each well=(cAMP AUC for the well/deut AMP AUC for the well)*average deut AMP AUC for the plate). nM cAMP was calculated for each well from the cAMP standard curves located on each plate by first calculating the slope and deriving the intercept (b).
EC50 values were determined from a 4-point fit (Hill equation) of a single 11-point compound dosing.

[1] = target: T2, TGR5 (NCI-H716 cell line) (Homo sapiens, UniProt Q8TDU6); assay: NCI-H716 cAMP Agonist EC50 Determination
T2 sequence (Q8TDU6 1-330): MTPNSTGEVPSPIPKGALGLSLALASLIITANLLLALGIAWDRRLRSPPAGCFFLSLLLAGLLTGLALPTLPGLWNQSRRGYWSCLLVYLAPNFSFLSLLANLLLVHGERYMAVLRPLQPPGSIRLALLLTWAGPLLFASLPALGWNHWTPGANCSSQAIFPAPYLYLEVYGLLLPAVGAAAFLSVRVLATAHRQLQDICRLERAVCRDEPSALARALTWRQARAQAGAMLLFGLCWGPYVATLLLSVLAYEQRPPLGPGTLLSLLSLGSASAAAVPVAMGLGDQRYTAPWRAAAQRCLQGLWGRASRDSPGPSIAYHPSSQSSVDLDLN
Protocol: Cells were cultured in suspension using RPM containing: 10% HI FBS, and 1× Penn/Strep and were cryostored (1E7 cells/vial in 5% DMSO).
A Normalized signal (NS) is generated by the Envision for each well ((Read 1/Read 2)×10,000).
The data from the Envision were imported to an Excel worksheet. nM cAMP is calculated for each well from the cAMP standard curves located on each plate by first calculating the slope and deriving the intercept (b).
[formula] [formula] [formula] EC50 values were determined from a 4-point fit (Hill equation) of a single 11-point compound dosing.

EC50 (TGR5 (STC1 cell line)) [nM] | EC50 [1] [nM] | SMILES
1380 | 16900 | COc1cc(C2CCCc3nc(SCc4c(F)ccc(OCCOCCOCCN(C)C)c4F)n(-c4ccc(F)cc4)c32)ccc1Cl (centres unmarked) [Example 32, 7-(4-chloro-3-methoxyphenyl)-2-([[3-(2-[2-[2-(dimethylamino)ethoxy]ethoxy]ethoxy)-2,6-difluorophenyl]methyl]sulfanyl)-1-(4-fluorophenyl)-4,5,6,7-tetrahydro-1H-1,3-benzodiazole hydrochloride]
3920 | > 50000 | COc1cc(C2CCCc3nc(SCc4c(F)cc(OCCN(C)C)cc4F)n(-c4ccc(F)cc4)c32)ccc1Cl (centres unmarked) [Example 24, 2-(4-((7-(4-chloro-3-methoxyphenyl)-1-(4-fluorophenyl)-4,5,6,7-tetrahydro-1H-benzo[d]imidazol-2-ylthio)methyl)-3,5-difluorophenoxy)-N,N-dimethylethanamine Trifluoromethylacetic acid salt]
230 | > 50000 | CNC(=O)c1cc(F)c(CSc2nc3c(n2-c2ccc(F)cc2)C(C)(c2ccc(Cl)c(OC)c2)CCC3)c(F)c1 (centres unmarked) [Example 91, 4-((7-(4-chloro-3-methoxyphenyl)-1-(4-fluorophenyl)-7-methyl-4,5,6,7-tetrahydro-1H-benzo[d]imidazol-2-ylthio)methyl)-3,5-difluoro-N-methylbenzamide trifluoroacetic acid]
360 | > 50000 | C/N=C(\N)NCCCc1cc(F)c(CSc2nc3c(n2-c2ccc(F)cc2)C(c2ccc(Cl)c(OC)c2)CCC3)c(F)c1 (centres unmarked) [Example 39a, (E)-1-[3-[4-([[7-(4-chloro-3-methoxyphenyl)-1-(4-fluorophenyl)-4,5,6,7-tetrahydro-1H-1,3-benzodiazol-2-yl]sulfanyl]methyl)-3,5-difluorophenyl]propyl]-2-methylguanidine hydrochloride]
1100 | > 50000 | COc1cc(C2CCCc3nc(SCc4c(F)cc(C(=O)O)cc4F)n(-c4ccc(F)cc4)c32)ccc1F (centres unmarked) [Example 74, 3,5-difluoro-4-(((7-(4-fluoro-3-methoxyphenyl)-1-(4-fluorophenyl)-4,5,6,7-tetrahydro-1H-benzo[d]imidazol-2-yl)thio)methyl)benzoic acid]
3260 | > 50000 | C=C1COC(c2ccc(F)c(OC)c2)c2c1nc(SCc1c(F)cccc1Cl)n2-c1ccc(F)cc1 (centres unmarked) [Example 138, 4-(4-Fluoro-3-methoxyphenyl)-2-((2-chloro-6-fluorobenzyl)thio)-3-(4-fluorophenyl)-7-methylene-3,4,6,7-tetrahydropyrano[3,4-d]imidazole]
5500 | > 50000 | COc1cc(C2CCCc3nc(SCc4ccncc4F)n(-c4ccc(F)cc4)c32)ccc1Cl (centres unmarked) [Example 51, 2-((3-fluoropyridin-4-yl)methylthio)-7-(4-chloro-3-methoxyphenyl)-1-(4-fluorophenyl)-4,5,6,7-tetrahydro-1H-benzo[d]imidazole trifluoroacetic acid]
2220 | 27100 | COc1cc(C2(C)CCCc3nc(SCc4ncncc4Cl)n(-c4ccc(F)cc4)c32)ccc1Cl (centres unmarked) [Example 86, 7-(4-chloro-3-methoxyphenyl)-2-((5-chloropyrimidin-4-yl)methylthio)-1-(4-fluorophenyl)-7-methyl-4,5,6,7-tetrahydro-1H-benzo[d]imidazole trifluoroacetic acid]
1750 | > 50000 | COc1cc(C2(C)CCCc3nc(SCc4c(F)cc(C(=O)O)cc4F)n(-c4ccc(F)cc4)c32)ccc1Cl (centres unmarked) [Example 81, 4-((7-(4-chloro-3-methoxyphenyl)-1-(4-fluorophenyl)-4,5,6,7-tetrahydro-7-methyl-1H-benzo[d]imidazol-2-ylthio)methyl)-3,5-difluorobenzoic acid trifluoroacetic acid]
320 | 1400 | COc1ccc(C2(C)CCCc3nc(SCc4c(F)cc(OCCCl)cc4F)n(-c4ccc(F)cc4)c32)cc1OC (centres unmarked) [Example 107, 2-((4-(2-chloroethoxy)-2,6-difluorobenzyl)thio)-7-(3,4-dimethoxyphenyl)-1-(4-fluorophenyl)-7-methyl-4,5,6,7-tetrahydro-1H-benzo[d]imidazole]
850 | 7970 | COc1ccc(C2CCCc3nc(SCc4c(F)cc(OCCN5CCCC5)cc4F)n(-c4ccc(F)cc4)c32)cc1OC (centres unmarked) [Example 69, 2-((2,6-difluoro-4-(2-(pyrrolidin-1-yl)ethoxy)benzyl)thio)-7-(3,4-dimethoxyphenyl)-1-(4-fluorophenyl)-4,5,6,7-tetrahydro-1H-benzo[d]imidazole]
3710 | > 50000 | COc1cc(C2CCCc3nc(SCc4c(F)cccc4Cl)n(-c4cc(F)c(F)cc4F)c32)ccc1Cl (centres unmarked) [Example 11, 7-(4-chloro-3-methoxyphenyl)-2-((2-chloro-6-fluorobenzyl)thio)-1-(2,4,5-trifluorophenyl)-4,5,6,7-tetrahydro-1H-benzo[d]imidazole]
510 | > 50000 | COc1cc(C2CCCc3nc(SCc4c(F)ccc(F)c4Cl)n(-c4ccc(F)cc4)c32)ccc1Cl (centres unmarked) [Example 20, 2-[[(2-chloro-3,6-difluorophenyl)methyl]sulfanyl]-7-(4-chloro-3-methoxyphenyl)-1-(4-fluorophenyl)-4,5,6,7-tetrahydro-1H-1,3-benzodiazole]
310 | 680 | COc1ccc(C2(C)CCCc3nc(SCc4c(F)cc(OCCN(C)C)cc4F)n(-c4ccc(F)cc4)c32)cc1OC (centres unmarked) [Example 108, 2-(4-(((7-(3,4-dimethoxyphenyl)-1-(4-fluorophenyl)-7-methyl-4,5,6,7-tetrahydro-1H-benzo[d]imidazol-2-yl)thio)methyl)-3,5-difluorophenoxy)-N,N-dimethylethanamine]
8040 | > 50000 | COc1cc(C2CCCc3nc(SCc4c(F)cc(C(=O)NCC[N+](C)(C)C)cc4F)n(-c4ccc(F)cc4)c32)ccc1Cl (centres unmarked) [Example 13, 2-(4-((7-(4-chloro-3-methoxyphenyl)-1-(4-fluorophenyl)-4,5,6,7-tetrahydro-1H-benzo[d]imidazol-2-ylthio)methyl)-3,5-difluorobenzamido)-N,N,N-trimethylethanaminium 2,2,2-trifluoroacetate]
410 | > 50000 | COc1cc(C2(C)CCCc3nc(SCc4c(F)cc(C(=O)NCCO)cc4F)n(-c4ccc(F)cc4)c32)ccc1Cl (centres unmarked) [Example 94, 4-((7-(4-chloro-3-methoxyphenyl)-1-(4-fluorophenyl)-7-methyl-4,5,6,7-tetrahydro-1H-benzo[d]imidazol-2-ylthio)methyl)-3,5-difluoro-N-(2-hydroxyethyl)benzamide trifluoroacetic acid]
660 | > 50000 | COc1cc(C2CCCc3nc(SCc4c(F)cc(OCCOCCOCCOCCO)cc4F)n(-c4ccc(F)cc4)c32)ccc1Cl (centres unmarked) [Example 23, 1-[4-([[7-(4-chloro-3-methoxyphenyl)-1-(4-fluorophenyl)-4,5,6,7-tetrahydro-1H-1,3-benzodiazol-2-yl]sulfanyl]methyl)-3,5-difluorophenyl]-1,4,7,10-tetraoxadodecan-12-ol]
15500 | > 50000 | COc1cc(C2CCCc3nc(SCc4c(Br)cncc4Br)n(-c4ccc(F)cc4)c32)ccc1Cl (centres unmarked) [Example 60, 2-((3,5-dibromopyridin-4-yl)methylthio)-7-(4-chloro-3-methoxyphenyl)-1-(4-fluorophenyl)-4,5,6,7-tetrahydro-1H-benzo[d]imidazole]
340 | 38700 | COc1cc(C2(C)CCCc3nc(SCc4c(F)cc(C(=O)NCCOCCOCCOCCO)cc4F)n(-c4ccc(F)cc4)c32)ccc1Cl (centres unmarked) [Example 84, 4-((7-(4-chloro-3-methoxyphenyl)-1-(4-fluorophenyl)-7-methyl-4,5,6,7-tetrahydro-1H-benzo[d]imidazol-2-ylthio)methyl)-3,5-difluoro-N-(2-(2-(2-(2-hydroxyethoxy)ethoxy)ethoxy)ethyl)benzamide trifluoroacetic acid]
690 | 48400 | COc1cc(C2CCCc3nc(SCc4c(F)cc(S(N)(=O)=O)cc4F)n(-c4ccc(F)cc4)c32)ccc1Cl (centres unmarked) [Example 21a, 4-((7-(4-chloro-3-methoxyphenyl)-1-(4-fluorophenyl)-4,5,6,7-tetrahydro-1H-benzo[d]imidazol-2-ylthio)methyl)-3,5-difluorobenzenesulfonamide]
1100 | > 50000 | COc1cc(C2CCCc3nc(SCc4sccc4Cl)n(-c4ccc(F)cc4)c32)ccc1Cl (centres unmarked) [Example 58, 2-((3-chlorothiophen-2-yl)methylthio)-7-(4-chloro-3-methoxyphenyl)-1-(4-fluorophenyl)-4,5,6,7-tetrahydro-1H-benzo[d]imidazole trifluoroacetic acid]
450 | 1180 | CCO/C=C/c1cc(F)c(CSc2nc3c(n2-c2ccc(F)cc2)C(C)(c2ccc(OC)c(OC)c2)CCC3)c(F)c1 (centres unmarked) [Example 110, (E)-7-(3,4-dimethoxyphenyl)-2-((4-(2-ethoxyvinyl)-2,6-difluorobenzyl)thio)-1-(4-fluorophenyl)-7-methyl-4,5,6,7-tetrahydro-1H-benzo[d]imidazole]
